Entries after “also recorded” stand apart in the source; their conditions may differ. Like-named read-outs stand apart in the source and are kept apart here.
Legend:
[1] = system: F4/80^+ macrophages (BMDMs); experiment: Arg1 in BMDMs exposed to recombinant adiponectin or AdipoRon; format: cell-based, mouse; conditions: increasing concentrations, 48 h, vs vehicle
Procedure: BMDMs were generated from bone marrow after erythrocyte lysis. Cells were cultured in RPMI supplemented with 10% FCS, 1% P/S and 20 ng/mL rmM-CSF (Peprotech). Culture medium was replaced on days 5 and 6. Cells were used on day 7 with a purity >95%, confirmed by surface CD11b and F4/80 expression. BMDMs (M0) were polarized for 16 h into M1 with 50 ng/mL rmIFNγ (Peprotech) and 20 ng/mL LPS (Sigma), or into M2 with 20 ng/mL rmIL-4 (Peprotech). If indicated, BMDMs were treated with increasing concentrations of recombinant adiponectin/Acrp30 (GenScript) or AdipoRon (MedChemExpress) for 48 h.
(§1) Spleens were isolated, meshed and erythrocytes were lysed. Single cell suspensions of tissues were prepared as described. Viability was analyzed by either Zombie NIR fixable dye (BioLegend) or LIVE/DEAD Fixable Aqua (Invitrogen) staining. Fc receptors were blocked with anti-mouse CD16/CD32 (BioLegend) for 10 min at 4° C., followed by surface staining with fluorochrome-conjugated antibodies for 30 min at 4° C. […] Antigen-specific CD8 T-cells were analyzed after H-2Kb/OVA^257-264 dextramer staining (Immudex). […] All data were acquired on a BD LSR Fortessa (BD Biosciences) and analyzed with FlowJo v10 (TreeStar). […] Data was acquired with a Canto II flow cytometer (BD Biosciences) and analyzed using FACSDiva Software V6 (BD Biosciences).

[2] = system: DSS/anti-CTLA4-induced colitis; experiment: DSS/anti-CTLA4-induced colitis model; format: in vivo, mice; conditions: AdipoRon vs vehicle; FIGS. S10a-S10d
Procedure: For the induction of acute colitis, mice received 3% Dextran Sodium Sulfate (DSS colitis grade, 36-50 kDa; MP Biomedicals) in drinking water from day 0 to day 3, followed by normal drinking water. Mice were injected i.p. with 0.2 mg immune checkpoint inhibitor (ICI) or the respective isotype controls on days 0, 3 and 6 of the experiment. Recipients were transplanted i.v. with 107 ECP-treated donor splenocytes on days 3 and 6. In some experiments, steroid, adiponectin or AdipoRon were applied daily from days 3-7. Arginase-1 inhibitor was applied twice per day from days 4-7. STAT6 or PPARγ inhibitors were applied from day 4-7. Mice were injected with Clodrosomes on days 1, 3, 5 and 7. […]
(§2) Colon, liver, skin and lung were harvested, formalin-fixed and paraffin embedded. Sections were stained with H&E and scored by an experienced pathologist, based on histopathological characterization of human irAEs, including lymphocyte and neutrophil infiltration, crypt abscesses, and apoptotic cells on a scale from 0 (absent) to 2 (massive). […]
For quantification of adiponectin concentrations in murine serum specimen, blood was harvested by retroorbital bleeding and serum was isolated by centrifugation. Adiponectin concentrations were measured using Adiponectin Mouse ELISA Kit (ThermoFisher) at 20,000-fold dilution.

[3] = system: DSS/anti-PD1-induced colitis; experiment: DSS/anti-PD1-induced colitis model; format: in vivo, mice; conditions: for ICI-induced colonic inflammation, combination with ECP: ECP plus agent vs ECP plus vehicle, FIGS. 4i-p; for severity of ICI-induced colitis (bodyweight, colon length, neutrophil and lymphocyte infiltration): monotherapy vs vehicle, daily days 3-7, FIGS. 4a-h
Procedure: For modeling ECP transplantation in vivo, splenocytes of donor mice were used. Donor animals were treated identically to the respective recipient groups. Spleens were harvested, meshed and erythrocytes were lysed. Splenocytes were resuspended to 3-5×10^6 cells/mL in RPMI, supplemented with 10% FCS and 1% P/S, and treated with 200 ng/mL 8-methoxypsoralen (8-MOP; Uvadex©, Therakos) at 37° C. and 5% CO2 for 30 min. Following incubation, the cells were exposed to UVA light (2 J/cm2) in a calibrated BS-02 irradiation chamber, operated in dose-controlled mode (Opsytec Dr. Gröbel). ECP-treated splenocytes were resuspended in PBS and […] were injected intravenously into recipient mice. Where indicated, PBMCs were treated with ECP comparably to splenocytes and 107 PBMCs were injected intravenously into recipient mice. PBMCs from mouse EDTA-blood were isolated using Ficoll-Paque PREMIUM 1.084 (Cytiva). For ECP-treatment of epithelial cells, 6×10^6 MODE-K cells were seeded onto 10 cm dishes one day before ECP-treatment. The next day, cells were treated with 8-methoxypsoralen and UVA light in a calibrated BS-02 irradiation chamber. Cells were washed with PBS and 2×10^6 ECP-treated MODE-K cells were injected intravenously into recipient mice.
For the induction of acute colitis, mice received 3% Dextran Sodium Sulfate (DSS colitis grade, 36-50 kDa; MP Biomedicals) in drinking water from day 0 to day 3, followed by normal drinking water. Mice were injected i.p. with 0.2 mg immune checkpoint inhibitor (ICI) or the respective isotype controls on days 0, 3 and 6 of the experiment. Recipients were transplanted i.v. with 107 ECP-treated donor splenocytes on days 3 and 6. In some experiments, steroid, adiponectin or AdipoRon were applied daily from days 3-7. Arginase-1 inhibitor was applied twice per day from days 4-7. STAT6 or PPARγ inhibitors were applied from day 4-7. Mice were injected with Clodrosomes on days 1, 3, 5 and 7. If not indicated differently, mice were sacrificed in day 8 by retroorbital bleeding to harvest serum and organs which were harvested for histopathological scoring and gene expression analysis.
ICI treatment consisted of either 0.2 mg anti-PD1 (mouse, clone RMP1-14; Ichorbio) or 0.2 mg anti-CTLA4 (mouse, clone 9D9; Ichorbio) per injection intraperitoneally. Controls were Rat IgG2a Isotype Control (clone 1-1, Ichorbio) and Mouse IgG2b Isotype Control (clone MPC-11, Ichorbio), respectively. […]
as §2

ICI-hepatitis = conditions: cited from earlier work; for Response / Steroid reduction: case reports
ICI-colitis = conditions: cited from earlier work; for ORR (clinical remission) / response rate: retrospective observational cohort, best response at any time point
[4] = system: DSS/anti-PD1-induced colitis; experiment: Adoptive transfer of adiponectin-treated T-cells into colitis mice; format: in vivo; conditions: adiponectin-treated vs vehicle-treated T-cells
Procedure: (§3) Splenic T-cells were isolated from C57BL/6 donors using Pan T-cell isolation kit II (Miltenyi) and activated using anti-CD3/CD28 beads (ThermoScientific) in the presence of 30 U/mL rmIL2 (Peprotech). T-cells were treated with 9 μg/mL recombinant murine adiponectin (GenScript) or vehicle for 72 h. C57BL/6 recipients received 1% DSS (MP Biomedicals) in drinking water from day 0 to day 3, followed by normal drinking water to induce mild colitis. Mice were injected i.p. with 0.2 mg anti-PD1 on day 0, day 3 and day 6 of the experiment. On day 4, activation beads were removed, T-cells were washed and 5×106 T-cells were intravenously injected into colitis animals. Colitis tissue was harvested on day 8. T-cells were stained for CD25 surface expression to determine activation.
Colon, liver, skin and lung were harvested, formalin-fixed and paraffin embedded. Sections were stained with H&E and scored by an experienced pathologist, based on histopathological characterization of human irAEs, including lymphocyte and neutrophil infiltration, crypt abscesses, and apoptotic cells on a scale from 0 (absent) to 2 (massive). Scoring was done blinded to the experimental group.

pan T-cells = experiment: T-cell activation with anti-CD3/CD28 beads in the presence of adiponectin; format: cell-based, mouse; conditions: 72 h, vs vehicle
Procedure: as §3
as §1, with “staining.” for “staining. Fc receptors were blocked with anti-mouse CD16/CD32 (BioLegend) for 10 min at 4° C., followed by surface staining with fluorochrome-conjugated antibodies for 30 min at 4° C.”

[5] = retrospective analysis of 8 patients
[6] = retrospective analysis of 13 patients

With `O=C(COc1ccc(C(=O)c2ccccc2)cc1)NC1CCN(Cc2ccccc2)CC1` [AdipoRon] the “Arg1 (MFI) in BMDMs” value [1] was “upregulation of immunosuppressive Arg1”, the “DSS/anti-CTLA4-induced colitis / intestinal inflammation” value [2] was “reduced anti-CTLA-4-induced colitis; also recorded: also in DSS/anti-CTLA4-induced intestinal inflammation” and the “ICI-induced colonic inflammation, combination with ECP” value [3] was “synergized with ECP to reduce ICI-induced colonic inflammation”. The “severity of ICI-induced colitis (bodyweight, colon length, neutrophil and lymphocyte infiltration)” value [3] was “effective in anti-PD1-mediated colitis”.

In the case of `COc1c(C)c2c(c(O)c1C/C=C(\C)CCC(=O)OCCN1CCOCC1)C(=O)OC2` [Mycophenolate mofetil], the Response (ICI-hepatitis) is given as “Improved liver injury within 13; also recorded: Discharge of MMF after 68 days; also recorded: Liver function normalized within 3”, the Steroid reduction (ICI-hepatitis) is given as “Tapered from 60 to 10 mg/d; also recorded: Tapered from 500 to 10 mg/d; also recorded: Discontinuation after 1 year” and the ORR (ICI-hepatitis; retrospective, 8 patients, liver function tests to grade 1 or less) is given as 50%. For the same molecule, the Adverse events (ICI-hepatitis; retrospective, 8 patients) was 25%.

In the case of `C=CC[C@@H]1/C=C(\C)C[C@H](C)C[C@H](OC)[C@H]2O[C@@](O)(C(=O)C(=O)N3CCCC[C@H]3C(=O)O[C@H](/C(C)=C/[C@@H]3CC[C@@H](O)[C@H](OC)C3)[C@H](C)[C@@H](O)CC1=O)[C@H](C)C[C@@H]2OC` [Tacrolimus], the Response (ICI-hepatitis) is given as “Decreasing ALT levels within 2-5” and the Steroid reduction (ICI-hepatitis) is given as “Cessation at 12 months; also recorded: Cessation of prednisolone over 6”.

In the case of Infliximab: TNF antagonist, the Response (ICI-hepatitis) is listed as “Partial response, reduction of ALT”, the Steroid reduction (ICI-hepatitis) is listed as “Tapering to 30%, off steroid at 14” and the CR rate (ICI-colitis; [5]) is listed as 38%. For the same molecule, the ORR (ICI-colitis; [5]) was 50%, the CR (ICI-colitis; [6]) was 31% and the ORR (ICI-colitis; [6]) was 45%. For the same molecule, the “ORR (clinical remission) / response rate” value (ICI-colitis) was 88%.

In the case of “Tocilizumab: interleukin-6 blockade by tocilizumab”, the “Adverse events, any grade” value (ICI-colitis; human, in vivo) is listed as 80%, the “Adverse events, grade 3-4” value (ICI-colitis; human, in vivo) is listed as 25% and the “patients with reduction in symptoms” value (ICI-colitis; prospective trial, best response during 8 weeks) is listed as 8 of 10. The ORR (ICI-colitis; prospective, 10 patients, colitis improvement (≥1 grade reduction) within 8 weeks) was 80% and the CR (ICI-colitis; prospective, 10 patients) was 0%.

In the case of “Vedolizumab: treatment for ICI-colitis in cited studies”, the endoscopic remission rate (ICI-colitis; retrospective case series, 28 patients refractory to steroids and/or infliximab) is given as 29%, the “ORR (clinical remission) / response rate” value (ICI-colitis) is given as 89% and the “ORR (clinical remission) / response rate” value (ICI-colitis; listed as vedolizumab) is given as 89%.

B1: adiponectin: recombinant murine adiponectin (GenScript); protein hormone and adipokine (protein, UniProt Q60994 18-247, looked up)
Adiponectin: EDDVTTTEELAPALVPPPKGTCAGWMAGIPGHPGHNGTPGRDGRDGTPGEKGEKGDAGLLGPKGETGDVGMTGAEGPRGFPGTPGRKGEPGEAAYVYRSAFSVGLETRVTVPNVPIRFTKIFYNQQNHYDGSTGKFYCNIPGLYYFSYHITVYMKDVKVSLFKKDKAVLFTYDQYQEKNVDQASGSVLLHLEVGDQVWLQVYGDGDHNGLYADNVNDSTFTGFLLYHDTN
With B1 the “Arg1 (MFI) in BMDMs” value [1] was “upregulation of immunosuppressive Arg1”, the “ICI-induced colonic inflammation, combination with ECP” value [3] was “synergized with ECP to reduce ICI-induced colonic inflammation” and the “severity of ICI-induced colitis (bodyweight, colon length, neutrophil and lymphocyte infiltration)” value [3] was “reduce the severity of colitis”. The “colitis severity in recipients of treated T-cells” value [4] was “Colitis severity was lower”, the “CD25 expression on CD4^+ and CD8^+ T-cells” value (pan T-cells; 9 μg/mL) was “reduced the expression of CD25” and the “FoxP3 expression and CD4^+/CD8^+ T-cell frequencies” value (pan T-cells) was “no effect on FoxP3 expression and CD4^+/CD8^+ T-cell frequencies”.
